Results: patent US20020026051A1, “Dithiepino [6,5-b]pyridines, and related compositions and methods” (priority 1999, published 2002)

Each compound was assayed against T1, calcium channel (Oryctolagus cuniculus, UniProt P15381) (assay: Assay for Inhibition of Nitrendipine Binding (3H-nitrendipine, heart membranes)). Settings: 3H-nitrendipine displacement, rabbit heart membranes; Tables 1-5.
T1 construct: from tissue; host or cells: rabbit heart membrane preparation
T1 sequence (P15381 whole entry, other chains not shown): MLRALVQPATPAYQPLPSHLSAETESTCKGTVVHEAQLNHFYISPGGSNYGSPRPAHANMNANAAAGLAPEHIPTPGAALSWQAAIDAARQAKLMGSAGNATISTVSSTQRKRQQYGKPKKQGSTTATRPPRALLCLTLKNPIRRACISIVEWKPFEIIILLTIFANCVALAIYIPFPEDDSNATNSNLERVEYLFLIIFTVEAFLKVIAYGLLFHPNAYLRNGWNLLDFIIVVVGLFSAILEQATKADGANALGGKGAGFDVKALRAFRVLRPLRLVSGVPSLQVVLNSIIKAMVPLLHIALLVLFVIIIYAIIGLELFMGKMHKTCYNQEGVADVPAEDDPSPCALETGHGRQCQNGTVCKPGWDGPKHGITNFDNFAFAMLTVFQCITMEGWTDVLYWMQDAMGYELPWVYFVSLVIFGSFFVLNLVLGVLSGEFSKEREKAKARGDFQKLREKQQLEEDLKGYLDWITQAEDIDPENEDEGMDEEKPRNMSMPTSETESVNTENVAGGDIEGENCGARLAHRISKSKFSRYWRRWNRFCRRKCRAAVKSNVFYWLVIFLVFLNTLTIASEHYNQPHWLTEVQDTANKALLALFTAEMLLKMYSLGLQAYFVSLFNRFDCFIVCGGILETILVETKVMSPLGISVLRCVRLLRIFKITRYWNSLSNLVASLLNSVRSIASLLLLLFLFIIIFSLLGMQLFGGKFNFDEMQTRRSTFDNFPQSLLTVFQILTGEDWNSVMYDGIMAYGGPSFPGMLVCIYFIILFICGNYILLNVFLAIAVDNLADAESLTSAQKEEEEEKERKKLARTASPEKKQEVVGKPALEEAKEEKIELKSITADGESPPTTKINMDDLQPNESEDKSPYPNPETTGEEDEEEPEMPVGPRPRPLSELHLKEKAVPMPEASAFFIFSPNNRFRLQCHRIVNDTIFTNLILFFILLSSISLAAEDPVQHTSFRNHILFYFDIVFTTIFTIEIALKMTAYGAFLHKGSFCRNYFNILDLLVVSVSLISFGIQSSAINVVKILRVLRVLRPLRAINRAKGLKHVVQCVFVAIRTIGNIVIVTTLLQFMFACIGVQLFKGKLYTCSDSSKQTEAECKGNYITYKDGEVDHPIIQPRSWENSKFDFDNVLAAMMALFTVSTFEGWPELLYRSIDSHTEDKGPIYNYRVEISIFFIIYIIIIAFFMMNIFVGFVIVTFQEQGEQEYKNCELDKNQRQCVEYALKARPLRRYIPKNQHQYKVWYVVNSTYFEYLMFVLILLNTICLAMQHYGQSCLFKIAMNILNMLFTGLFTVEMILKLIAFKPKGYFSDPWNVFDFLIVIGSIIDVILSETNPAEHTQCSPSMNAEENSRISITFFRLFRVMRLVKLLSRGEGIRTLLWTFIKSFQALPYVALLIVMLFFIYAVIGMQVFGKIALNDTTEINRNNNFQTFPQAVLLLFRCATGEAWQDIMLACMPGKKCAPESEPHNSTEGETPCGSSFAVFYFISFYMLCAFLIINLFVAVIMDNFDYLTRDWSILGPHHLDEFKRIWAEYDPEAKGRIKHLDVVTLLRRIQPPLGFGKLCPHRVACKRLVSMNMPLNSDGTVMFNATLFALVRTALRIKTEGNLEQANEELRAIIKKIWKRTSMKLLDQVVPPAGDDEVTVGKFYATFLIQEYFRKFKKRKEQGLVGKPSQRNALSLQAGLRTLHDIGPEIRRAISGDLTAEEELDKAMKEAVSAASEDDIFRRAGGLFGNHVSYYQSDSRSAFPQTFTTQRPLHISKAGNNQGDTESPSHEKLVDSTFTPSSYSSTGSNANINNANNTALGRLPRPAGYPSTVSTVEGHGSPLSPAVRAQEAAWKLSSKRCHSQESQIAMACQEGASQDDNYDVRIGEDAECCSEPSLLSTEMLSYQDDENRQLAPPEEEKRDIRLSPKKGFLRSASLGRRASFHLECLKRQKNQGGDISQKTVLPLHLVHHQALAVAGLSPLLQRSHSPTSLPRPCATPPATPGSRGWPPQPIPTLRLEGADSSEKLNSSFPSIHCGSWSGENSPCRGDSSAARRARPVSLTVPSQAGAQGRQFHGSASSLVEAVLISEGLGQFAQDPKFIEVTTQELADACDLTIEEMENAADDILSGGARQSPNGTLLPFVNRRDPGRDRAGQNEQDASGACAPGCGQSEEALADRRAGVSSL
T1 sequence (P13806 27-960 partner limits assumed, other chains not shown): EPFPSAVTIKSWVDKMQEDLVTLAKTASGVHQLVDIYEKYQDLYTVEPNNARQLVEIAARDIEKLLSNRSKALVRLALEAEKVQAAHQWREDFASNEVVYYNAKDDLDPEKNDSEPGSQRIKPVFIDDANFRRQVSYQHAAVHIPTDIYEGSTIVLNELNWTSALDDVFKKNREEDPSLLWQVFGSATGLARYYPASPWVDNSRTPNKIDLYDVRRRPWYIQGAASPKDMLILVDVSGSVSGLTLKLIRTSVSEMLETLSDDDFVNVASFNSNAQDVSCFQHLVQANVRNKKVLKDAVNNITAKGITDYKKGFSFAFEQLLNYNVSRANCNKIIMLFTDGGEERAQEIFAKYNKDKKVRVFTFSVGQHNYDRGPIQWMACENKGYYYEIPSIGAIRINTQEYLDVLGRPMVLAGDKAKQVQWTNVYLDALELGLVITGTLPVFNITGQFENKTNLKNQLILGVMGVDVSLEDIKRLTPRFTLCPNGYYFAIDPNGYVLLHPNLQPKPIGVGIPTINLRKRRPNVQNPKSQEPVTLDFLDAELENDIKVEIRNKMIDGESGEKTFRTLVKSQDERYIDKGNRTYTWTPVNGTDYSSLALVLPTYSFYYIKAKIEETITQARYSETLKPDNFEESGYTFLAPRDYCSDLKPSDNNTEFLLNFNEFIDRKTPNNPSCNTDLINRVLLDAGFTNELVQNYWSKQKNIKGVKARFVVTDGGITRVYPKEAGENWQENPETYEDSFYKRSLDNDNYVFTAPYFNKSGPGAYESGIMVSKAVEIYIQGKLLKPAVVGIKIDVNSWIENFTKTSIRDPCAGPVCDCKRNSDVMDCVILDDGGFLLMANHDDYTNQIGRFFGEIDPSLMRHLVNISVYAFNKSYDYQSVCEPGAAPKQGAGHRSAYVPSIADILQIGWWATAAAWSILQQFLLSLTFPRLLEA
T1 sequence (P13806 961-1106 partner limits assumed, other chains not shown): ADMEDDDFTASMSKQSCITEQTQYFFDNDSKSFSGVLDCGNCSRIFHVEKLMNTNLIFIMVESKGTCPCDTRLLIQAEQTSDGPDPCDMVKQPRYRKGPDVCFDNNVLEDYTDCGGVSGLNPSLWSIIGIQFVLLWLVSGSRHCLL
Method: Female, New Zealand white rabbits (1-2 kg) are sacrificed by cervical dislocation, and the heart is immediately removed, cleaned and chopped into small pieces. The tissue is homogenized in 5× times volume of 0.05M Hepes buffer, pH 7.4. The homogenate is centrifuged at 4000 g for 10 minutes, and the supernatant is re-centrifuged at 42,000×g for 90 minutes. The resulting membrane pellet is resuspended (0.7 ml/g weight) in 0.05M Hepes, pH 7.4 and stored at […] until used. Each tube of the binding assay contains ^3H-nitrendipine (0.05-0.50 nM), buffer, membranes (0.10 ml), and test compound in a total volume of 1.0 ml. After 90 minutes at 4° C., the bound nitrendipine is separated from the unbound by filtration on Whatman GF/C filters. After rinsing, the filters are dried and counted in a liquid scintillation counter.
Non-specific binding of ^3H-nitrendipine (that amount bound in the presence of excess unlabelled nitrendipine) is subtracted from the total bound to obtain specifically bound radiolabeled nitrendipine. The amount of specifically bound nitrendipine in the presence of a test compound is compared to that amount bound in the absence of a compound. A percent displacement (or inhibition) can then be calculated.
Compound `CC1=C(C(=O)OCCN(C)Cc2ccccc2)C(c2cccc(C(F)(F)F)c2F)C2=C(CS(=O)(=O)CCCS2(=O)=O)N1` (stereo not shown) [Compound 28, 2H,6H-1,5-Dithiocino[3,2-b]pyridine-9-carboxylic acid, 10-[2-fluoro-3-(trifluoromethyl)phenyl]-3,4,7,10-tetrahydro-8-methyl-2-[methyl(phenylmethyl)amino]ethyl ester 1,1,5,5-tetraoxide] has an IC50 of 53 nM.
Work on `CC1=C(C(=O)OCCN(C)Cc2ccccc2)C(c2ccccc2Cl)C2=C(CS(=O)(=O)CCCS2(=O)=O)N1` (stereo not shown) [Compound 29, 2H,6H-1,5-Dithiocino[3,2-b]pyridine-9-carboxylic acid, 10-(2-chlorophenyl)-3,4,7,10-tetrahydro-8-methyl-2-[methyl(phenylmethyl)amino]ethyl ester 1,1,5,5-tetraoxide] yielded an IC50 of 57 nM.
For `CC1=C(C(=O)OCCN(C)Cc2ccccc2)C(c2cccc(C(F)(F)F)c2F)C2=C(CS(=O)(=O)CS2(=O)=O)N1` (stereo not shown) [Compound 31, 4H-1,3-Dithiino[5,4-b]pyridine-7-carboxylic acid, 8-[2-fluoro-3-(trifluoromethyl)phenyl]-5,8-dihydro-6-methyl-2-[methyl(phenylmethyl)amino]ethyl ester 1,1,3,3-tetraoxide], the IC50 was 28 nM.
Work on `CC1=C(C(=O)OCCN(C)Cc2ccccc2)C(c2ccccc2Cl)C2=C(CS(=O)(=O)CS2(=O)=O)N1` (stereo not shown) [Compound 32, 4H-1,3-Dithiino[5,4-b]pyridine-7-carboxylic acid, 8-(2-chlorophenyl)-5,8-dihydro-6-methyl-2-[methyl(phenylmethyl)amino]ethyl ester 1,1,3,3-tetraoxide] yielded an IC50 of 39 nM.

Same assay, conditions: 3H-nitrendipine displacement, rabbit heart membranes; Tables 6-7
`CCC(CC)C(=O)OCCOC(=O)C1=C(C)NC2=C(C1c1c(F)cccc1Cl)S(=O)(=O)CCS(=O)(=O)C2` (stereo not shown) [Compound 33] gave an IC50 of 13 nM.
`CC1=C(C(=O)OCCOC(=O)C(C)C)C(c2cccc(Cl)c2Cl)C2=C(CS(=O)(=O)CCS2(=O)=O)N1` (stereo not shown) [Compound 34, 5H-[1,4]dithiepino[6,5-b]pyridine-8-carboxylic acid, 9-(2,3-dichlorophenyl)-2,3,6,9-tetrahydro-7-methyl-, 2-(2-methyl-1-oxopropoxy)ethyl ester, 1,1,4,4-tetraoxide] gave an IC50 of 15 nM.
Compound `CC1=C(C(=O)OCCOC(=O)c2ccc(OC(C)C)cc2)C(c2c(F)cccc2Cl)C2=C(CS(=O)(=O)CCS2(=O)=O)N1` (stereo not shown) [Compound 35, 5H-[1,4]dithiepino[6,5-b]pyridine-8-carboxylic acid, 9-(2-chloro-6-fluorophenyl)-2,3,6,9-tetrahydro-7-methyl-, 2-[[4-(1-methylethoxy)benzoyl]oxy]ethyl ester, 1,1,4,4-tetraoxide] has an IC50 of 20 nM.
Work on `CC1=C(C(=O)OCCOC(=O)CCC(C)C)C(c2c(F)cccc2Cl)C2=C(CS(=O)(=O)CCS2(=O)=O)N1` (stereo not shown) [Compound 36] yielded an IC50 of 20 nM.
For `CC1=C(C(=O)OCCOC(=O)C(C)Cc2ccccc2)C(c2c(F)cccc2Cl)C2=C(CS(=O)(=O)CCS2(=O)=O)N1` (stereo not shown) [Compound 37], the IC50 was 33 nM.
Compound `CC1=C(C(=O)OCCOC(=O)CC(C)C)C(c2c(F)cccc2Cl)C2=C(CS(=O)(=O)CCS2(=O)=O)N1` (stereo not shown) [Compound 38] has an IC50 of 35 nM.
For `CC1=C(C(=O)OCCOC(=O)C2CCCCCC2)C(c2c(F)cccc2Cl)C2=C(CS(=O)(=O)CCS2(=O)=O)N1` (stereo not shown) [Compound 39, 5H-[1,4]dithiepino[6,5-b]pyridine-8-carboxylic acid, 9-(2-chloro-6-fluorophenyl)-2,3,6,9-tetrahydro-7-methyl-, 2-[(cycloheptylcarbonyl)oxy]ethyl ester, 1,1,4,4-tetraoxide], the IC50 was 38 nM.
For `COc1cccc(C(=O)OCCOC(=O)C2=C(C)NC3=C(C2c2c(F)cccc2Cl)S(=O)(=O)CCS(=O)(=O)C3)c1` (stereo not shown) [Compound 40], the IC50 was 41 nM.
`CC1=C(C(=O)OCCCOC(=O)c2ccccc2)C(c2c(F)cccc2Cl)C2=C(CS(=O)(=O)CCS2(=O)=O)N1` (stereo not shown) [Compound 41, 7-methyl-9-[2-fluoro-6-chlorophenyl]-2,3,6,9-tetrahydro-1,1,4,4-tetraoxide 5H-1,4-Dithiepino[6,5-b]pyridine-8-carboxylic acid 3-benzoyloxypropyl ester] gave an IC50 of 43 nM.
